Test results: patent publication US20210261642A1, “SOLUBILITY OF GLP-1 PEPTIDE” (Novo Nordisk A/S, priority 2017, published 2021)

Assay: Assay (I): Determination of Solubility (96-well plate, pH 3.0-11.0, organic solvent 0-70% w/w, UV absorption at 280 nm)
Assay type: physicochemical
Settings: Method 1
Experimental: Assay (I): Determination of Solubility
96-Well Plate Preparation
96-well plates containing target peptide in a solid form were prepared in one of two ways:
Method 1 (evaporation): Addition of 100 μl stock solution of said peptide at a concentration of 4-6 mg/ml to each well of a 96-well half area plate (150 μl well size). Subsequently the solvent was evaporated by applying a vacuum until the solvent was completely removed.
Method 2 (precipitation): Addition of a certain volume of a stock solution of said peptide containing to each well of a 96-well half area plate followed by the addition of a certain volume of concentrated phosphoric acid to obtain a pH of 4.6 followed by addition of a certain volume of ethanol resulting in a final ethanol concentration of 20% v/v. Subsequently the plate was stored at 4° C. for 1 h and then centrifuged at 4,000 rpm for 20 min. Finally the supernatant was removed. The concentration of the stock solution was chosen in a way that the final amount of peptide after supernatant removal was >0.4 mg per well.
In both cases the stock solution was prepared by adding de-ionized water to a certain amount of powder of said peptide followed by a stepwise addition of small amounts of a concentrated sodium hydroxide solution until said peptide was completely in solution.
To determine solubility of a target peptide at different pH and organic solvent concentrations, two different buffer systems were used in independent experiments to cover the whole range from pH 3.0 to pH 11.0. Buffer system 1 covers pH 3.0-7.5 and buffer system 2 covers pH 7.5-11.0. For each buffer system 96 different solvent compositions were premixed in the following way: • 1. A low pH buffer (adjusted to either pH 3.0 or pH 7.5) and a high pH buffer (adjusted to either pH 7.5 or pH 11.0) were mixed at 8 different ratios to obtain values between pH 3.0 and pH 7.5 or pH 7.5 and pH 11.0, respectively. The total volume after mixing was 300 μl. • 2. 12 different amounts of organic solvent were then added to these buffers to obtain organic solvent (e.g. ethanol) concentrations between 0 and 70% w/w. • 3. Water was then added to obtain a total weight of 1.0 g of solvent in each well.
After preparing the 96 different solvent systems, 100 μl of each system was transferred to the 96-well plate containing the solid form of the target peptide (prepared as described in the section “96-well plate preparation”). The plate was then stored at a given temperature (between 5° C. and 70° C.) for a given time on a rotating shaker set to 400 rpm. At regular time intervals the plate was centrifuged (4,000 rpm for 10 min) and a 10 μl sample was taken from each well. The samples were then analysed by UV absorption at 280 nm for peptide quantification. Peptide concentration results are given as UV absorption at 280 nm of the sample subtracted UV absorption at 280 nm of a well comprising 10 μl water.
The buffers used were as follows: • Buffer system 1 (for the pH range from pH 3.0-7.5)
• Buffer system 2 (for the pH ranae from pH 7.5-11.0)
Solubility of liraglutide was determined using Assay (I) described herein. Liraglutide was prepared using Method 1 (evaporation) or Method 2 (precipitation) as described in subsection “96-well plate preparation”.

CCCCCCCCCCCCCCCC(=O)N[C@@H](CCC(=O)NCCCC[C@H](NC(=O)[C@H](C)NC(=O)[C@H](C)NC(=O)[C@H](CCC(N)=O)NC(=O)CNC(=O)[C@H](CCC(=O)O)NC(=O)[C@H](CC(C)C)NC(=O)[C@H](Cc1ccc(O)cc1)NC(=O)[C@H](CO)NC(=O)[C@H](CO)NC(=O)[C@@H](NC(=O)[C@H](CC(=O)O)NC(=O)[C@H](CO)NC(=O)[C@@H](NC(=O)[C@H](Cc1ccccc1)NC(=O)[C@@H](NC(=O)CNC(=O)[C@H](CCC(=O)O)NC(=O)[C@H](C)NC(=O)[C@@H](N)Cc1cnc[nH]1)[C@@H](C)O)[C@@H](C)O)C(C)C)C(=O)N[C@@H](CCC(=O)O)C(=O)N[C@@H](Cc1ccccc1)C(=O)N[C@H](C(=O)N[C@@H](C)C(=O)N[C@@H](Cc1c[nH]c2ccccc12)C(=O)N[C@@H](CC(C)C)C(=O)N[C@H](C(=O)N[C@@H](CCCNC(=N)N)C(=O)NCC(=O)N[C@@H](CCCNC(=N)N)C(=O)NCC(=O)O)C(C)C)[C@@H](C)CC)C(=O)O [liraglutide, Arg34,Lys26-(N-epsilon-(gamma-L-glutamyl(N-alfa-hexadecanoyl)))-GLP-1(7-37)]
Peptide concentration after 5 min (MeCN 19.1% w/w, pH 8.5, 5° C.): 1.2 mg/mL | Peptide concentration after 180 min (MeCN 19.1% w/w, pH 8.5, 5° C.): 2.5 mg/mL | Peptide concentration after 24 h (MeCN 19.1% w/w, pH 8.5, 5° C.): >4.0 mg/mL | Peptide concentration after 5 min (MeCN 19.1% w/w, pH 9.0, 5° C.): 0.9 mg/mL | Peptide concentration after 180 min (MeCN 19.1% w/w, pH 9.0, 5° C.): 2.3 mg/mL | Peptide concentration after 24 h (MeCN 19.1% w/w, pH 9.0, 5° C.): >4.0 mg/mL | Peptide concentration after 5 min (MeCN 19.1% w/w, pH 9.5, 5° C.): 1.1 mg/mL | Peptide concentration after 180 min (MeCN 19.1% w/w, pH 9.5, 5° C.): 3.3 mg/mL | Peptide concentration after 24 h (MeCN 19.1% w/w, pH 9.5, 5° C.): >4.0 mg/mL | Peptide concentration after 5 min (MeCN 19.1% w/w, pH 10.0, 5° C.): 1.4 mg/mL | Peptide concentration after 180 min (MeCN 19.1% w/w, pH 10.0, 5° C.): 3.8 mg/mL | Peptide concentration after 24 h (MeCN 19.1% w/w, pH 10.0, 5° C.): >4.0 mg/mL | Peptide concentration after 5 min (MeCN 19.1% w/w, pH 10.5, 5° C.): 1.4 mg/mL | Peptide concentration after 180 min (MeCN 19.1% w/w, pH 10.5, 5° C.): >4.0 mg/mL | Peptide concentration after 24 h (MeCN 19.1% w/w, pH 10.5, 5° C.): >4.0 mg/mL | Peptide concentration after 5 min (MeCN 19.1% w/w, pH 11.0, 5° C.): 1.0 mg/mL | Peptide concentration after 180 min (MeCN 19.1% w/w, pH 11.0, 5° C.): 2.6 mg/mL | Peptide concentration after 24 h (MeCN 19.1% w/w, pH 11.0, 5° C.): >4.0 mg/mL | Peptide concentration after 5 min (MeCN 25.5% w/w, pH 8.0, 5° C.): 1.1 mg/mL | Peptide concentration after 180 min (MeCN 25.5% w/w, pH 8.0, 5° C.): 3.2 mg/mL | Peptide concentration after 24 h (MeCN 25.5% w/w, pH 8.0, 5° C.): >4.0 mg/mL | Peptide concentration after 5 min (MeCN 25.5% w/w, pH 8.5, 5° C.): 1.4 mg/mL | Peptide concentration after 180 min (MeCN 25.5% w/w, pH 8.5, 5° C.): 3.5 mg/mL | Peptide concentration after 24 h (MeCN 25.5% w/w, pH 8.5, 5° C.): >4.0 mg/mL | Peptide concentration after 5 min (MeCN 25.5% w/w, pH 9.0, 5° C.): 0.5 mg/mL | Peptide concentration after 180 min (MeCN 25.5% w/w, pH 9.0, 5° C.): >4.0 mg/mL | Peptide concentration after 24 h (MeCN 25.5% w/w, pH 9.0, 5° C.): >4.0 mg/mL | Peptide concentration after 5 min (MeCN 25.5% w/w, pH 9.5, 5° C.): 1.2 mg/mL | Peptide concentration after 180 min (MeCN 25.5% w/w, pH 9.5, 5° C.): >4.0 mg/mL | Peptide concentration after 24 h (MeCN 25.5% w/w, pH 9.5, 5° C.): >4.0 mg/mL | Peptide concentration after 5 min (MeCN 25.5% w/w, pH 10.0, 5° C.): 1.4 mg/mL | Peptide concentration after 180 min (MeCN 25.5% w/w, pH 10.0, 5° C.): 3.4 mg/mL | Peptide concentration after 24 h (MeCN 25.5% w/w, pH 10.0, 5° C.): >4.0 mg/mL | Peptide concentration after 5 min (MeCN 25.5% w/w, pH 10.5, 5° C.): 1.5 mg/mL | Peptide concentration after 180 min (MeCN 25.5% w/w, pH 10.5, 5° C.): 3.8 mg/mL | Peptide concentration after 24 h (MeCN 25.5% w/w, pH 10.5, 5° C.): >4.0 mg/mL | Peptide concentration after 5 min (MeCN 25.5% w/w, pH 11.0, 5° C.): 1.0 mg/mL | Peptide concentration after 180 min (MeCN 25.5% w/w, pH 11.0, 5° C.): 3.1 mg/mL | Peptide concentration after 24 h (MeCN 25.5% w/w, pH 11.0, 5° C.): >4.0 mg/mL | Peptide concentration after 5 min (MeCN 31.8% w/w, pH 8.0, 5° C.): 0.9 mg/mL | Peptide concentration after 180 min (MeCN 31.8% w/w, pH 8.0, 5° C.): 2.7 mg/mL | Peptide concentration after 24 h (MeCN 31.8% w/w, pH 8.0, 5° C.): >4.0 mg/mL | Peptide concentration after 5 min (MeCN 31.8% w/w, pH 8.5, 5° C.): 2.1 mg/mL | Peptide concentration after 180 min (MeCN 31.8% w/w, pH 8.5, 5° C.): 3.6 mg/mL | Peptide concentration after 24 h (MeCN 31.8% w/w, pH 8.5, 5° C.): >4.0 mg/mL | Peptide concentration after 5 min (MeCN 31.8% w/w, pH 9.0, 5° C.): 0.8 mg/mL | Peptide concentration after 180 min (MeCN 31.8% w/w, pH 9.0, 5° C.): 2.7 mg/mL | Peptide concentration after 24 h (MeCN 31.8% w/w, pH 9.0, 5° C.): >4.0 mg/mL | Peptide concentration after 5 min (MeCN 31.8% w/w, pH 9.5, 5° C.): 0.9 mg/mL | Peptide concentration after 180 min (MeCN 31.8% w/w, pH 9.5, 5° C.): 3.3 mg/mL | Peptide concentration after 24 h (MeCN 31.8% w/w, pH 9.5, 5° C.): >4.0 mg/mL
